Assay results reported in patent publication US20260324636A1, “COMPOSITION FOR PROVIDING PLANT WITH STRESS RESISTANCE” (KIRIN HOLDINGS KABUSHIKI KAISHA, priority 2022, published 2026).

How the values were obtained:
H1ZAT12 = H1ZAT12 gene expression by real-time PCR, Example 13; type: in vivo, hop; conditions: 1 mM in medium, 20° C. for 2 hours, leaves; read-out: H1ZAT12 expression level, increase vs control
Source text: The materials as used in Example 4 were used.
The medium as used in Example 4 were used.
In order to design primers for the target genes necessary for gene expression analysis by real-time PCR, homologs of Arabidopsis thaliana oxidation stress-responsive genes in hop were searched for. The amino acid sequences of Arabidopsis thaliana ZAT10 (AGI code: AT1G27730) and ZAT12 (AGI code: AT5G59820) were obtained from TAIR (https://www.arabidopsis.org/), and the nucleotide sequences of the gene homologs were obtained using Hopbase (http:/hopbase.cgrb.oregonstate.edu/). […] As the reference gene, the nucleotide sequence of the homolog of Arabidopsis thaliana EF1α (AGI code: AT1G18070) was obtained. The hop homolog genes were designated as H1ZAT10, H1ZAT12, and HIEF1α, respectively.
The leaves in the first and the second nodes from the apical buds of the tissue-cultured seedlings were sampled 1.5 months after the initiation of subculture and inoculated into a liquid medium consisting of a ½ Murashige and Skoog Plant Salt Mixture and 2 (w/v) % glucose. Specifically, a liquid medium was dispensed at 5 ml/well to a 6-well microplate, and 5 hop leaves were mounted thereon. […]
Thereafter, the relative expression levels of the target genes upon N-acetylglutamic acid treatment were calculated by the ΔΔCt method.

Arabidopsis thaliana = assay: High-temperature stress resistance in liquid culture (leaf chlorosis, chlorophyll content), Example 1; type: in vivo, Arabidopsis thaliana (Col-0); conditions: for chlorosis of plants caused by the high-temperature treatment: 2 h before 44° C. for 60 minutes, then 22° C. 3 days; for chlorophyll content (fresh weight basis): 44° C. 60 minutes, vs group not subjected to the treatment
Source text: A wild-type Arabidopsis thaliana strain (accession: Col-0) was used as an experimental material. Seeds were purchased from Inplanta Innovations Inc. (https://www.inplanta.jp/).
A liquid medium containing a ½ Murashige and Skoog Plant Salt Mixture (Nacalai) and 1 (w/v) % sucrose (FUJIFILM Wako) was used as a growth medium.
Arabidopsis thaliana seeds were sterilized with the use of a Kitchen Haiter® liquid (bleach for kitchen available from Kao Corporation) diluted to one-half concentration with distilled water for 3 minutes, washed 3 times with sterile distilled water, and then incubated at 4° C. overnight. The growth medium was dispensed at 1 ml/well on a 24-well microplate (IWAKI), 3 grains of the seeds were inoculated in each well, and the plate was transferred to the incubator (TOMY) to initiate growing. The incubator was maintained at a temperature of 22° C. for a daily cycle of 16 hours light and 8 hours darkness.
Before high-temperature treatment, a stock solution of N-acetylglutamic acid (Tokyo Chemical Industry Co., Ltd.) was added to Arabidopsis thaliana 7 days after seeding to the final concentration of 0, 0.01, 0.05, and 0.1 mM in the media, followed by incubation for 2 hours. Sterile distilled water was used as a solvent for the stock solution of N-acetylglutamic acid.
High-temperature treatment was performed with the use of an incubator. The plate was transferred to an incubator maintained at 44° C., incubated for 60 minutes to perform high-temperature treatment, and cultured in an incubator maintained at 22° C. for 3 days.
Plants are known to lose the green pigment chlorophyll from tissue such as leaves upon high-temperature stress exposure and become chlorotic as a consequence. Accordingly, the chlorophyll content was quantified after the high-temperature treatment to evaluate activity of N-acetylglutamic acid to enhance high-temperature stress resistance. The chlorophyll content was quantified in accordance with the method of Yamaguchi et al. (Nature Commun., Jun. 9, 2021, 12 [1]: 3480). To the collected plants, N,N-dimethylformamide (FUJIFILM Wako) was added at 1 ml/well, and incubation was performed at 4° C. in the dark overnight to extract the chlorophyll. Thereafter, the absorbance of the chlorophyll extract was measured at 647 nm (A647) and 664 nm (A664), respectively, using a microspectrophotometer (NanoPhotometer, Implen), and the chlorophyll content was calculated in accordance with the formula: 19.43×A647+8.05×A664. […] Thus, the chlorophyll content was calculated on a fresh weight basis to compare the chlorophyll content among samples.

rice = assay: Oxidation stress resistance against methyl viologen in rice (leaf chlorosis, chlorophyll content), Example 9; type: in vivo, rice (variety: Nipponbare); conditions: 0.5 mM, 2.5 μM methyl viologen, 30° C. 3 days
Experimental: A rice strain (the variety: Nipponbare) was used as an experimental material. Rice seeds were purchased from Nouken.
A Murashige and Skoog Plant Salt Mixture (2.2 g) was dissolved in 1 l of pure water, a pH was adjusted to 5.8, and the resultant was autoclaved (121° C., 20 minutes).
Seeds were sterilized by incubation with the use of a Kitchen Haiter® diluted to 2-fold with pure water for 20 minutes. The sterilized seeds were washed 3 times with sterile water, 30 grains of seeds were soaked in a 50-ml conical tube (Falcon) containing 10 ml of sterile water, and the seeds were cultured in an incubator maintained at 30° C. (16 hours light and 8 hours darkness) for 3 days to germinate the seeds.
After the seeds were incubated for 3 days, the growth medium was dispensed at 3 ml/well to the sterilized 12-well microplate (IWAKI), and the germinated seeds were seeded at 3 grains/well. To each well, 0.5 mM N-acetylglutamic acid or an equivalent amount of sterile water was added, and the seeds were incubated at 30° C. for 1 day. […]
Leaf chlorosis is observed in plants upon oxidation stress exposure. Thus, an extent of chlorosis was evaluated by measuring the content of the green pigment chlorophyll in leaves. […] The chlorophyll content was calculated in the same manner as in Example 1.

SMILES: CC(=O)N[C@@H](CCC(=O)O)C(=O)O [N-acetylglutamic acid]
- fold induction at 1000 µM (H1ZAT12): 1.9
- chlorosis of plants caused by the high-temperature treatment (Arabidopsis thaliana; 0.05 mM in medium): suppressed
- chlorophyll content (fresh weight basis) (Arabidopsis thaliana; 0.05 mM): significantly higher
- chlorosis of plants caused by the high-temperature treatment (Arabidopsis thaliana; 0.1 mM in medium): suppressed
- chlorophyll content (fresh weight basis) (Arabidopsis thaliana; 0.1 mM): significantly higher
- leaf chlorosis in MV-treated group (rice): substantially no leaf chlorosis was observed
- chlorophyll content of the MV-treated groups (rice; second leaf, fresh weight basis): increased
